These molecules were tested against Recombinant human KIF18A (1-467 His-tagged) protein (Homo sapiens (Human), UniProt Q8NI77) (assay: KIF18A Enzyme Assay: microtubule-stimulated ATPase activity (ADP-Glo)). Details: read-out: KIF18A ATPase IC50; 30 nM KIF18A, 30 μg/mL pig microtubules, ATP at Km 75 μM, ADP-Glo luminescence.
Chain of Recombinant human KIF18A (1-467 His-tagged) protein (Q8NI77 1-467): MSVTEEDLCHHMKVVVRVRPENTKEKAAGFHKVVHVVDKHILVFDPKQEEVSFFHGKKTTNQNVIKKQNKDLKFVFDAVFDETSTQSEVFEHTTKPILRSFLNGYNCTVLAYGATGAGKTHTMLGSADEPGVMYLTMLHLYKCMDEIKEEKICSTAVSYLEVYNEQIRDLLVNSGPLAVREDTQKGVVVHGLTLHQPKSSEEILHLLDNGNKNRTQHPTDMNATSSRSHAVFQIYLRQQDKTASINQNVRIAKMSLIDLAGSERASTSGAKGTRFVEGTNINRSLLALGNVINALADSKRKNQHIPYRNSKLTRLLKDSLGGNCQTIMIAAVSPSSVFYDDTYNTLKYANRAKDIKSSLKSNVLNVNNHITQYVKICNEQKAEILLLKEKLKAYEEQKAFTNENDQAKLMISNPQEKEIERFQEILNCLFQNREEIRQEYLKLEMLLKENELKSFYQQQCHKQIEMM
Chain of Recombinant human KIF18A (1-467 His-tagged) protein (P02550 whole entry partner): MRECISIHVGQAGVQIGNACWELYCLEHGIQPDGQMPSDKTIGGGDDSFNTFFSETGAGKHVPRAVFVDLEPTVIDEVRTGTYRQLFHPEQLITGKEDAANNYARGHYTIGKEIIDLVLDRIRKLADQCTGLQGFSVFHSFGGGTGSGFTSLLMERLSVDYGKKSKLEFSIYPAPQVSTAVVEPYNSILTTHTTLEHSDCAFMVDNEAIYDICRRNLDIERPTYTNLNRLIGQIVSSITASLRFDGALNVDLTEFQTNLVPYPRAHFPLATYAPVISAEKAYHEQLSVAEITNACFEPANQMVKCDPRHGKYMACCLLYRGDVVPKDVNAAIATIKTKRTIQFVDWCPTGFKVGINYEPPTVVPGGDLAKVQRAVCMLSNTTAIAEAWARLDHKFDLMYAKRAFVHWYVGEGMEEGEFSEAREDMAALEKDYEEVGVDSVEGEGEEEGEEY
Chain of Recombinant human KIF18A (1-467 His-tagged) protein (P02554 whole entry partner): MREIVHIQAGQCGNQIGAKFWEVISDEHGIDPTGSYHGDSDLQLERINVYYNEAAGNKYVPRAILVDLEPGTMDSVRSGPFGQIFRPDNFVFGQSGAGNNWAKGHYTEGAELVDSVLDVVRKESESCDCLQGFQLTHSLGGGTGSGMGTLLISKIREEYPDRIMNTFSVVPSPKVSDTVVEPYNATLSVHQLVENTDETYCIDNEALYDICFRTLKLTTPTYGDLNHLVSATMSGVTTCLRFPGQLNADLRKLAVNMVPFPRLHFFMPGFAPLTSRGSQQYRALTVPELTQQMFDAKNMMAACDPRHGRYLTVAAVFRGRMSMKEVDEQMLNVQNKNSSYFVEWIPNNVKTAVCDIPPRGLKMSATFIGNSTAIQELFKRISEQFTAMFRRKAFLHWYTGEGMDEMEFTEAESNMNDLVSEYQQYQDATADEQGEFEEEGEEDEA
Excerpt: KIF18A Enzyme Assay: Microtubule-stimulated ATPase activity assay is used to measure KIF18A enzyme activity after treatment with compound. Compounds were 2-fold serially diluted in DMSO (Sigma Inc) over 22-point concentration range. […] The assay measures ADP formed from the ATPase reaction.
Molecule `Cc1cc(NC(=O)c2ccc(S(C)(=O)=O)cc2N2CCC3(CC2)CC3)nc(N[C@H](C)CO)n1` [Example 1-1, (R)-N-(2-((1-Hydroxypropan-2-yl)amino)-6-methylpyrimidin-4-yl)-4-(methylsulfonyl)-2-(6-azaspiro[2.5]octan-6-yl)benzamide] has an IC50 of 216 nM. In the case of `C[C@@H]1CN(c2nccc(NC(=O)c3ccc(S(=O)(=O)NC4(C)COC4)cc3N3CCC4(CC3)CC4)n2)CCO1` [Example 2-2, (R)-N-(2-(2-Methylmorpholino)pyrimidin-4-yl)-4-(N-(3-methyloxetan-3-yl)sulfamoyl)-2-(6-azaspiro[2.5]octan-6-yl)benzamide], the IC50 is reported as 68 nM. For `Cc1cc(NC(=O)c2ccc(NS(=O)(=O)CCO)cc2N2CCC3(CC2)CC3)nc(N2CC(O)(C(F)(F)F)C2)n1` [Example 11-18, N-(2-(3-Hydroxy-3-(trifluoromethyl)azetidin-1-yl)-6-methylpyrimidin-4-yl)-4-((2-hydroxyethyl)sulfonamido)-2-(6-azaspiro[2.5]octan-6-yl)benzamide], the IC50 was 64 nM. Molecule `Cc1cc(NC(=O)c2ccc(NS(=O)(=O)C3CCC3)cc2N2CCC3(CC2)CC3)nc(N2CCC(F)(F)CC2)n1` [Example 6-11, 4-(Cyclobutanesulfonamido)-N-(2-(4,4-difluoropiperidin-1-yl)-6-methylpyrimidin-4-yl)-2-(6-azaspiro[2.5]octan-6-yl)benzamide] has an IC50 of 127 nM. `N=S(=O)(c1ccc(C(=O)Nc2ccnc(N3CCC(F)(F)CC3)c2)c(N2CCC3(CC2)CC3)c1)C1CC1` (centres unmarked) [Example 19-6, 4-(Cyclopropanesulfonimidoyl)-N-(2-(4,4-difluoropiperidin-1-yl)pyridin-4-yl)-2-(6-azaspiro[2.5]octan-6-yl)benzamide] gave an IC50 of 42 nM. `Cc1cc(NC(=O)c2ccc(NS(=O)(=O)CCO)cc2N2CCC3(CC2)CC3)nc(OCCC(F)(F)F)n1` [Example 11-61, 4-((2-Hydroxyethyl)sulfonamido)-N-(6-methyl-2-(3,3,3-trifluoropropoxy)pyrimidin-4-yl)-2-(6-azaspiro[2.5]octan-6-yl)benzamide] was tested, and the IC50 was 70 nM. With `Cc1cc(NC(=O)c2ccc(NS(=O)(=O)C(C)(C)C)cc2N2CCC3(CC2)CC3)nc(N2CCC(F)(F)CC2)n1` [Example 6-14, N-(2-(4,4-Difluoropiperidin-1-yl)-6-methylpyrimidin-4-yl)-4-((1,1-dimethylethyl)sulfonamido)-2-(6-azaspiro[2.5]octan-6-yl)benzamide] the IC50 was 413 nM. Molecule `Cc1cc(NC(=O)c2ccc(NS(=O)(=O)CCO)cc2N2CCC3(CC2)CC3)nc(N2CCC[C@@H](C#N)C2)n1` [Example 11-34, (R)-N-(2-(3-Cyanopiperidin-1-yl)-6-methylpyrimidin-4-yl)-4-((2-hydroxyethyl)sulfonamido)-2-(6-azaspiro[2.5]octan-6-yl)benzamide] has an IC50 of 92 nM. For `CCS(=O)(=O)Nc1ccc(C(=O)Nc2cc(C)nc(N3CCC(F)CC3)n2)c(N2CCC3(CC2)CC3)c1` [Example 11-82, 4-(Ethylsulfonamido)-N-(2-(4-fluoropiperidin-1-yl)-6-methylpyrimidin-4-yl)-2-(6-azaspiro[2.5]octan-6-yl)benzamide], the IC50 was 51 nM. In the case of `Cc1cc(NC(=O)c2ccc([S@@](=N)(=O)C3CC3)cc2N2CCC3(CC2)CC3)nc(N2CCO[C@H](C)C2)n1` [Example 19-8, 2-(6-Azaspiro[2.5]octan-6-yl)-4-(R-cyclopropylsulfonimidoyl)-N-(6-methy-2-((2R)-2-methyl-4-moprpholinyl)-4-pyrimidinyl)benzamide], the IC50 is reported as 78 nM. `Cc1cc(NC(=O)c2ccc(NS(=O)(=O)CCO)cc2N2CCC3(CC2)CC3)nc(N2CC[C@@](C)(F)C2)n1` [Example 11-27, (R)-N-(2-(3-Fluoro-3-methylpyrrolidin-1-yl)-6-methylpyrimidin-4-yl)-4-((2-hydroxyethyl)sulfonamido)-2-(6-azaspiro[2.5]octan-6-yl)benzamide] showed an IC50 of 20 nM. In the case of `Cc1cc(NC(=O)c2ccc(NS(=O)(=O)C3(CO)CC3)cc2N2CCC3(CC2)CC3)nc(N2CC(F)(F)C2)n1` [Example 11-68, N-(2-(3,3-Difluoroazetidin-1-yl)-6-methylpyrimidin-4-yl)-4-((1-(hydroxymethyl)cyclopropane)-1-sulfonamido)-2-(6-azaspiro[2.5]octan-6-yl)benzamide], the IC50 is reported as 53 nM. `Cc1cc(NC(=O)c2ccc(NS(=O)(=O)C(C)C)cc2N2CCC3(CC2)CC3)nc(N2CC(F)(F)C2)n1` [Example 11-75, N-(2-(3,3-Difluoroazetidin-1-yl)-6-methylpyrimidin-4-yl)-4-((1-methylethyl)sulfonamido)-2-(6-azaspiro[2.5]octan-6-yl)benzamide] showed an IC50 of 56 nM. With `O=C(Nc1ccnc(N2CC(F)C2)n1)c1ccc(NS(=O)(=O)CCO)cc1N1CCC2(CC1)CC2` [Example 11-6, N-(2-(3-Fluoroazetidin-1-yl)pyrimidin-4-yl)-4-((2-hydroxyethyl)sulfonamido)-2-(6-azaspiro[2.5]octan-6-yl)benzamide] the IC50 was 68 nM. With `Cc1cc(NC(=O)c2ccc(NS(=O)(=O)CC3(O)COC3)cc2N2CCC3(CC2)CC3)nc(N2CCC(F)(F)CC2)n1` [Example 6-19, N-(2-(4,4-Difluoropiperidin-1-yl)-6-methylpyrimidin-4-yl)-4-(((3-hydroxyoxetan-3-yl)methyl)sulfonamido)-2-(6-azaspiro[2.5]octan-6-yl)benzamide] the IC50 was 39 nM. For `Cc1cc(NC(=O)c2ccc(NS(=O)(=O)CCO)cc2N2CCC(C)(C)CC2)nc(N2CCC(F)(F)CC2)n1` [Example 11-41, N-(2-(4,4-Difluoropiperidin-1-yl)-6-methylpyrimidin-4-yl)-2-(4,4-dimethylpiperidin-1-yl)-4-((2-hydroxyethyl)sulfonamido)benzamide], the IC50 was 127 nM. `Cc1cc(NC(=O)c2ccc(NS(=O)(=O)CCO)cc2N2CCC3(CC2)CC3)nc(NC(C)(C)CO)n1` [Example 11-62, N-(2-((1-Hydroxy-2-methylpropan-2-yl)amino)-6-methylpyrimidin-4-yl)-4-((2-hydroxyethyl)sulfonamido)-2-(6-azaspiro[2.5]octan-6-yl)benzamide] gave an IC50 of 18 nM. `Cc1cc(NC(=O)c2ccc(NS(=O)(=O)CCO)cc2N2CCC3(CC2)CC3)nc(N2CC(F)C2)n1` [Example 11-5, N-(2-(3-Fluoroazetidin-1-yl)-6-methylpyrimidin-4-yl)-4-((2-hydroxyethyl)sulfonamido)-2-(6-azaspiro[2.5]octan-6-yl)benzamide] showed an IC50 of 32 nM. Molecule `C[C@@H]1CN(c2nccc(NC(=O)c3ccc(NS(=O)(=O)CCO)cc3N3CCC4(CC3)CC4)n2)CCO1` [Example 6-4, (R)-4-((2-Hydroxyethyl)sulfonamido)-N-(2-(2-methylmorpholino)pyrimidin-4-yl)-2-(6-azaspiro[2.5]octan-6-yl)benzamide] has an IC50 of 32 nM. With `Cc1cc(NC(=O)c2ccc(NS(=O)(=O)CCO)cc2N2CCC3(CC2)CC3)c(F)c(N2CCC(F)(F)CC2)n1` [Example 11-64, N-(2-(4,4-Difluoropiperidin-1-yl)-3-fluoro-6-methylpyridin-4-yl)-4-((2-hydroxyethyl)sulfonamido)-2-(6-azaspiro[2.5]octan-6-yl)benzamide] the IC50 was 54 nM. In the case of `Cc1cc(NC(=O)c2ccc(NS(=O)(=O)CCO)cc2N2CCC3(CC2)CC3)cc(OCCC(F)(F)F)n1` [Example 11-60, 4-((2-Hydroxyethyl)sulfonamido)-N-(2-methyl-6-(3,3,3-trifluoropropoxy)pyridin-4-yl)-2(6-azaspiro[2.5]octan-6-yl)benzamide], the IC50 is reported as 84 nM. `Cc1cc(NC(=O)c2ccc(NS(=O)(=O)CCO)cc2N2CCC3(CC2)CC3)nc(N2CCC3(CC3)C2)n1` [Example 11-25, 4-((2-Hydroxyethyl)sulfonamido)-N-(6-methyl-2-(5-azaspiro[2.4]heptan-5-yl)pyrimidin-4-yl)-2-(6-azaspiro[2.5]octan-6-yl)benzamide] was tested, and the IC50 was 17.6 nM. Molecule `Cc1cc(NC(=O)c2ccc([S@](=N)(=O)C3CC3)cc2N2CCC3(CC2)CC3)nc(N2CCC(F)(F)CC2)n1` (single isomer, unassigned) [Example 18-1, 2-(6-Azaspiro[2.5]octan-6-yl)-4-(R-cyclopropylsulfonimidoyl)-N-(2-(4,4-difluoro-1-piperidinyl)-6-methyl-4-pyrimidinyl)benzamide] has an IC50 of 64 nM. `Cc1cc(NC(=O)c2ccc(NS(=O)(=O)C[C@H](C)O)cc2N2CCC3(CC2)CC3)nc(N2CC(F)(F)C2)n1` (single isomer, unassigned) [Example 10-2] showed an IC50 of 73 nM. Molecule `Cc1cc(NC(=O)c2ccc(NS(=O)(=O)C(C)C)cc2N2CCC3(CC2)CC3)nc(N2CCC(F)(F)CC2)n1` [Example 6-22, N-(2-(4,4-Difluoropiperidin-1-yl)-6-methylpyrimidin-4-yl)-4-((1-methylethyl)sulfonamido)-2-(6-azaspiro[2.5]octan-6-yl)benzamide] has an IC50 of 151 nM. Work on `O=C(Nc1cc(C2CC2)nc(N2CCC(F)(F)CC2)n1)c1ccc(NS(=O)(=O)CCO)cc1N1CCC2(CC1)CC2` [Example 6-39, N-(6-Cyclopropyl-2-(4,4-difluoropiperidin-1-yl)pyrimidin-4-yl)-4-((2-hydroxyethyl)sulfonamido)-2-(6-azaspiro[2.5]octan-6-yl)benzamide] yielded an IC50 of 225 nM. In the case of `Cc1cc(NC(=O)c2ccc(NS(=O)(=O)C3CCOC3)cc2N2CCC3(CC2)CC3)nc(N2CC(F)(F)C2)n1` (stereo in doubt) [Example 11-71, (R)-N-(2-(3,3-Difluoroazetidin-1-yl)-6-methylpyrimidin-4-yl)-2-(6-azaspiro[2.5]octan-6-yl)-4-((tetrahydrofuran)-3-sulfonamido)benzamide], the IC50 is reported as 42 nM. Molecule `Cc1cc(NC(=O)c2ccc(NS(=O)(=O)CCO)cc2N2CCC3(CC2)CC3)nc(OC2CCC2)n1` [Example 11-4, N-(2-Cyclobutoxy-6-methylpyrimidin-4-yl)-4-((2-hydroxyethyl)sulfonamido)-2-(6-azaspiro[2.5]octan-6-yl)benzamide] has an IC50 of 18 nM. In the case of `Cc1cc(NC(=O)c2ccc(NS(C)(=O)=O)cc2N2CCC3(CC2)CC3)nc(N2CCC(F)(F)CC2)n1` [Example 6-21, N-(2-(4,4-Difluoropiperidin-1-yl)-6-methylpyrimidin-4-yl)-4-(methylsulfonamido)-2-(6-azaspiro[2.5]octan-6-yl)benzamide], the IC50 is reported as 39 nM.

Source: patent US11236069B2, “KIF18A inhibitors” (AMGEN INC., priority 2018, dated 2022)
